Data reported in ChEMBL document CHEMBL3612051, “Carbonic anhydrase inhibitors: Design, synthesis and structural characterization of new heteroaryl-N-carbonylbenzenesulfonamides targeting druggable human carbonic anhydrase isoforms” (Eur J Med Chem, 2015).
pIC50, pKi: −log10 of the molar value.

biological target: Carbonic anhydrase 7 (Homo sapiens, UniProt P43166); assay: Inhibition of human recombinant full length carbonic anhydrase 7 preincubated for 15 mins by stopped-flow CO2 hydration assay
Sequence (P43166 whole entry): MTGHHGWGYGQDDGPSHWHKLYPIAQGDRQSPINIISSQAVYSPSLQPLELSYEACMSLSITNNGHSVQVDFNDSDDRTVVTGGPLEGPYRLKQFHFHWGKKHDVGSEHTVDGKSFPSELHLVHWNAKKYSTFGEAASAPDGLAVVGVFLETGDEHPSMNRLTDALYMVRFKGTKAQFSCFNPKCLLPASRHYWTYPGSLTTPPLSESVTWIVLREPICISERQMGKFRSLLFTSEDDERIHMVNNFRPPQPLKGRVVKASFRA

For `COc1ccc2c(c1)CCCN2C(=O)c1ccc(S(N)(=O)=O)cc1`, the pIC50 was < 4.30.

biological target: Carbonic anhydrase 9 (Homo sapiens, UniProt Q16790); assay: Inhibition of human recombinant full length carbonic anhydrase 9 preincubated for 15 mins by stopped-flow CO2 hydration assay

`NS(=O)(=O)c1ccc(C(=O)N2CCc3cc(O)ccc3C2)cc1` and `COc1ccc2c(c1)CCN(C(=O)c1ccc(S(N)(=O)=O)cc1)C2` are within 0.2 log units of each other in pKi: 7.55 for the first, 7.57 for the second.

Compared with `NS(=O)(=O)c1ccc(C(=O)N2CCCc3ccccc32)cc1`, `NS(=O)(=O)c1ccc(C(=O)N2CCCc3cc(O)ccc32)cc1` is 0.65 log units lower in pKi: 8.03 for the first, 7.38 for the second. The first binds more tightly here.

`COc1cc2c(cc1OC)CN(C(=O)c1ccc(S(N)(=O)=O)cc1)CC2` and `NS(=O)(=O)c1ccc(C(=O)N2CCc3cc(O)c(O)cc3C2)cc1` are within 0.2 log units of each other in pKi: 8.21 for the first, 8.30 for the second.

`NS(=O)(=O)c1ccc(C(=O)N2CCc3ccccc3C2)cc1` and `COc1ccc2c(c1)CCCN2C(=O)c1ccc(S(N)(=O)=O)cc1` are within 0.2 log units of each other in pKi: 8.12 for the first, 8.19 for the second.
